Assay results: the NIST ThermoML archive (doi:10.1016/j.jct.2008.05.001)
± gives the expanded uncertainty stated by the source.

Conditions: 293 K, 101.33 kPa, Pycnometric method

| Compound | mass density (Liquid) [kg/m3] | mass density (Crystal) [kg/m3] |
| --- | --- | --- |
| CCC1COC(=O)O1 (configuration not stated) [1,2-butylene carbonate] | 1140 ± 10 | – |
| O=C1OCCO1 [ethylene carbonate] | – | 1320 ± 10 |
